# Measurements as given in patent publication US10131679B2, “Substituted dihydropyrrolopyrazole compound” (UBE INDUSTRIES, LTD., priority 2014, dated 2018).
# System: human large intestine cancer cell line (HCT-116)
# Assay: Human large intestine cancer (HCT-116) cell growth inhibition test
# Type: cell-based
# Details: 72 h, HCT-116, culture for 3 days, sulforhodamine B absorbance
# Protocol: Human Large Intestine Cancer (HCT-116) Cell Growth Inhibition Test
# The measurement of a human large intestine cancer cell growth inhibitory effect was carried out by modifying the method of Simak et al. (Cancer Research, 69, 6208 (2009)).
# A human large intestine cancer cell line (HCT-116) (manufactured by DS Pharma Biomedical Co., Ltd., Cat. No. EC91091005) was cultured in McCoy's 5a (manufactured by GIBCO/Thermo Fisher Scientific, Inc., REF. 16600-082) medium containing 10% FBS (manufactured by GIBCO/Thermo Fisher Scientific, Inc., REF. 10082-147) and 1% penicillin/streptomycin/amphotericin B (manufactured by GIBCO/Thermo Fisher Scientific, Inc., REF. 15240-096) and inoculated at 1.0×10^3 cells/well in a 96-well plate (manufactured by Corning Inc., REF. 353072). After overnight culture in a carbon dioxide incubator, it was replaced with a fresh McCoy's 5a medium containing 10% FBS on the next day, and a test compound dissolved in DMSO (manufactured by Wako Pure Chemical Industries, Ltd., Code No. 043-07216) (final DMSO concentration: 0.1%) was added and left standing in a carbon dioxide incubator. After culturing for 3 days, the absorbance of each well was measured by using In Vitro Toxicology Assay Kit Sulforhodamine B based (manufactured by Sigma-Aldrich Co. LLC., Pcode 1001910706).
# The rate of inhibition of cell growth at each concentration was calculated from the test compound concentration and the absorbance of sulforhodamine B, and the concentration of the test compound necessary for inhibiting 50% of cell growth (IC50 value) was calculated by using EXSUS (version 8.0.0 or version 8.0.1, manufactured by CAC Exicare Corp.).
row,Structure (SMILES),IC50
1,"CC(C)(CO)C(NC(=O)N1Cc2c(NC(=O)C3([Si](C)(C)C)CCC3)n[nH]c2C1(C)C)c1ccccc1 (single isomer, unassigned; (+)) [IV-672, (+)-N-(3-Hydroxy-2,2-dimethyl-1-phenylpropyl)-6,6-dimethyl-3-[1-(trimethylsilyl)cyclobutanecarboxamido]-4,6-dihydropyrrolo[3,4-c]pyrazole-5(1H)-carboxamide]",≤ 0.5 µM
2,"CC1(C)c2[nH]nc(NC(=O)C3([Si](C)(C)C)CCC3)c2CN1C(=O)CC(O)c1ccccc1 (stereo not drawn) [IV-562, N-[5-(3-Hydroxy-3-phenylpropanoyl)-6,6-dimethyl-1,4,5,6-tetrahydropyrrolo[3,4-c]pyrazol-3-yl]-1-(trimethylsilyl)cyclobutanecarboxamide]",≤ 0.5 µM
3,"COCCC(C(=O)N1Cc2c(NC(=O)C3([Si](C)(C)C)CCC3)n[nH]c2C1(C)C)c1ccccc1 (stereo not drawn) [IV-1224, N-[5-(4-Methoxy-2-phenylbutanoyl)-6,6-dimethyl-1,4,5,6-tetrahydropyrrolo[3,4-c]pyrazol-3-yl]-1-(trimethylsilyl)cyclobutanecarboxamide]",≤ 0.5 µM
4,"CC1(C)c2[nH]nc(NC(=O)C3([Si](C)(C)C)CCC3)c2CN1C(=O)N[C@@H](CO)Cc1ccccc1 [IV-861, (R)—N-(1-Hydroxy-3-phenylpropan-2-yl)-6,6-dimethyl-3-[1-(trimethylsilyl)cyclobutanecarboxamido]-4,6-dihydropyrrolo[3,4-c]pyrazole-5(1H)-carboxamide]",≤ 0.5 µM
5,"CCC(O)(CC)C[C@@H](NC(=O)N1Cc2c(NC(=O)C3([Si](C)(C)C)CCC3)n[nH]c2C1(C)C)c1ccccc1 [IV-759, (R)—N-(3-Ethyl-3-Hydroxy-1-phenylpentyl)-6,6-dimethyl-3-[1-(trimethylsilyl)cyclobutanecarboxamido]-4,6-dihydropyrrolo[3,4-c]pyrazole-5(1H)-carboxamide]",≤ 0.5 µM
6,"CC1(C)c2[nH]nc(NC(=O)C3([Si](C)(C)C)CCC3)c2CN1C(=O)CC(CO)c1ccccc1 (stereo not drawn) [IV-558, N-[5-(4-Hydroxy-3-phenylbutanoyl)-6,6-dimethyl-1,4,5,6-tetrahydropyrrolo[3,4-c]pyrazol-3-yl]-1-(trimethylsilyl)cyclobutanecarboxamide]",≤ 0.5 µM
7,"CC(Oc1ccccc1Cl)C(=O)N1Cc2c(NC(=O)C3([Si](C)(C)C)CCC3)n[nH]c2C1(C)C (stereo not drawn) [IV-1266, N-{5-[2-(2-Chlorophenoxy)propanoyl]-6,6-dimethyl-1,4,5,6-tetrahydropyrrolo[3,4-c]pyrazol-3-yl}-1-(trimethylsilyl)cyclobutanecarboxamide]",≤ 0.5 µM
8,"CC(Oc1cccc(Cl)c1)C(=O)N1Cc2c(NC(=O)C3([Si](C)(C)C)CCC3)n[nH]c2C1(C)C (stereo not drawn) [IV-1268, N-{5-[2-(3-Chlorophenoxy)propanoyl]-6,6-dimethyl-1,4,5,6-tetrahydropyrrolo[3,4-c]pyrazol-3-yl}-1-(trimethylsilyl)cyclobutanecarboxamide]",≤ 0.5 µM
9,"CC1(C)c2[nH]nc(NC(=O)C3([Si](C)(C)C)CCC3)c2CN1C(=O)C(Oc1ccccc1)c1ccccc1 (stereo not drawn) [IV-1211, N-[6,6-Dimethyl-5-(2-phenoxy-2-phenylacetyl)-1,4,5,6-tetrahydropyrrolo[3,4-c]pyrazol-3-yl]-1-(trimethylsilyl)cyclobutanecarboxamide]",≤ 0.5 µM
